We go through one molecule from PMC5787524, “Discovery of a FLT3 inhibitor LDD1937 as an anti-leukemic agent for acute myeloid leukemia” (Oncotarget, 2017).

As usually defined, the IC50 is the concentration that inhibits the measured activity by half. High values mean lower potency, low ones higher potency. One may read the GI50 as the concentration that inhibits growth by half.

The target in test [1] is T1, JAK3 (Homo sapiens, UniProt P52333).
T1 sequence (P52333 1-1124): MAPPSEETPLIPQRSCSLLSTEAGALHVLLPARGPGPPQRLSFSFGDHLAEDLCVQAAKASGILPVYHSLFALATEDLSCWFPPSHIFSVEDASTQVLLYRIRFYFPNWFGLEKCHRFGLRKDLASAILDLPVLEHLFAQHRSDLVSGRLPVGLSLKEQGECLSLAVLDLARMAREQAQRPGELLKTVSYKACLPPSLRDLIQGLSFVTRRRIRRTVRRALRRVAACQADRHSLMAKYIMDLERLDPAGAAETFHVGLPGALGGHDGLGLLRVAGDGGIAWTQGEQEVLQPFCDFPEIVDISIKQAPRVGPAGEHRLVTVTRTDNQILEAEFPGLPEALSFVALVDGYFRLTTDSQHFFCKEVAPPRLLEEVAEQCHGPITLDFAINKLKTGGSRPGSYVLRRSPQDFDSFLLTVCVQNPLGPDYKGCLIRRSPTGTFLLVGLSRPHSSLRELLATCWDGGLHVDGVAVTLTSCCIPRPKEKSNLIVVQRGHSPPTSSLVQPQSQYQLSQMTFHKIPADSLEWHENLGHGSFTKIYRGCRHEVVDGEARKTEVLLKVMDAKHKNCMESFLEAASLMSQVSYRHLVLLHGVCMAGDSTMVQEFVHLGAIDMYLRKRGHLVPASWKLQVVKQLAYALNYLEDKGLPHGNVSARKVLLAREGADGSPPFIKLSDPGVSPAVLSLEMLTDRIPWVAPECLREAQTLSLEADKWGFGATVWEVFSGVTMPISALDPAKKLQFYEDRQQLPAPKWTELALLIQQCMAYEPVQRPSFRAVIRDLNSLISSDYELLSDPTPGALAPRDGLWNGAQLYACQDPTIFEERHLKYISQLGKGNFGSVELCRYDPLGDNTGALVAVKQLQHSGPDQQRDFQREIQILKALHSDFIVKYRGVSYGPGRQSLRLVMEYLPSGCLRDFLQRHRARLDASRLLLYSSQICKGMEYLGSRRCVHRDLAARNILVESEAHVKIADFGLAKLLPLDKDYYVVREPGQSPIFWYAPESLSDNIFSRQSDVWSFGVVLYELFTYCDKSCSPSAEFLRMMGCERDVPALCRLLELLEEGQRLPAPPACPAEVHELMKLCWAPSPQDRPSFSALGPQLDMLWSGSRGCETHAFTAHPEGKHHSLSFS
Nature of the test: In vitro JAK3 kinase assay (HTRF). Type of test: biochemical. To be noted: mean ± S.D. The procedure:
The inhibition of the FLT3 kinase activity was measured with homogeneous, time-resolved fluorescence (HTRF) assays. Recombinant proteins containing the FLT3 kinase domain were purchased from Carna biosciences (Japan). Optimal enzyme, ATP, and substrate concentrations were established with the HTRF KinEASE kit (Cisbio, France) according to the manufacturer’s instructions. The FLT3 enzymes were mixed with serially diluted compounds and peptide substrates in a kinase reaction buffer (50 mM HEPES (pH 7.0), 500 μM ATP, 0.1 mM sodium orthovanadate, 5 mM MgCl2, 1 mM DTT, 0.01% bovine serum albumin (BSA), and 0.02% NaN3). After the addition of the reagents for detection, the TR-FRET signal was measured with a Victor multilabel reader (Perkin Elmer, Waltham, MA, USA). The IC50 was calculated with nonlinear regression using Prism version 5.01 (GraphPad). JAK2, JAK3, cMET, and RET in vitro kinase assays were also carried out using the HTRF assay kit.

For test [2], the system named is MV-4-11 cells. As to the kind of experiment: Cell viability / growth inhibition (EZ-Cytox), MV-4-11. The class given is cell-based, human. The settings on record: for GI50: Homo sapiens, MV4-11, 72 h. The method, then: The cultured cells were incubated at 37°C with 5% CO2. Cell viability was assessed with a tetrazolium-based assay using the EZ-Cytox Cell Viability Assay kit (DaeilLab, Korea). Briefly, 2,000 ∼ 15,000 cells were plated in 96-well flat bottom plates in 100 µl of medium. The next day, the cells were treated with compounds along with dimethyl sulfoxide (DMSO, Fisher, Waltham, MA, USA) as a negative control. […] After incubation, the optical density (OD) was measured at a wavelength of 450 nm with a Victor multilabel reader (Perkin Elmer, Waltham, MA, USA).

In test [3] the test system is PC-3 cells. As to the kind of experiment: Cell viability / growth inhibition (EZ-Cytox), PC-3. The class given is cell-based. To be noted: Homo sapiens, Table 2, 72 h. The procedure:
MV-4-11 human acute myeloid leukemia cells were purchased from the American Type Culture Collection (ATCC, Rockville, MD, USA, CRL-9591), and the cells were cultured in IMDM medium (Sigma Co., St. Louis, MO, USA) supplemented with 10% fetal bovine serum, 1% penicillin/streptomycin and 4 mM L-glutamine (Life Technology, Grand Island, NY). Jurkat (human acute T lymphocytic leukemia, ATCC TIB-152) and K562 (human chronic myelogenous leukemia, ATCC CCL-243) cells were cultured in RPMI-1640 (Sigma Co.), and MCF7 (human breast adenocarcinoma, ATCC HTB-22) and PC-3 (human prostate adenocarcinoma, ATCC CRL-1435) cells were cultured in DMEM (Sigma Co.) medium supplemented with 10% fetal bovine serum and 1% penicillin/streptomycin. The cultured cells were incubated at 37°C with 5% CO2. Cell viability was assessed with a tetrazolium-based assay using the EZ-Cytox Cell Viability Assay kit (DaeilLab, Korea). Briefly, 2,000 ∼ 15,000 cells were plated in 96-well flat bottom plates in 100 µl of medium. The next day, the cells were treated with compounds along with dimethyl sulfoxide (DMSO, Fisher, Waltham, MA, USA) as a negative control. […] After incubation, the optical density (OD) was measured at a wavelength of 450 nm with a Victor multilabel reader (Perkin Elmer, Waltham, MA, USA). The IC50 was calculated with nonlinear regression using Prism version 5.01 (GraphPad, La Jolla, CA, USA).

As for `COC(=O)c1ccc2c(c1)/C(=C1/Nc3ccccc3/C1=N\OCCN1CCNCC1)C(=O)N2.Cl.Cl` [LDD1937, methyl (2Z,3E)-2′-oxo-3-((2-(piperazin-1-yl)ethoxy)imino)-[2,3′-biindolinylidene]-5′-carboxylate dihydrochloride], the IC50 in test [1] is 690 ± 59.9 nM. The “enhancement of MV-4-11 activity compared to the initial compound 1” value in test [2] is listed as 40 fold. In addition, the GI50 in test [2] (72 h, called IC50 in supplementary text) amounted to 1 ± 0.15 nM; in test [2] (Table 2, 72 h, mean ± S.D.), 1.2 ± 0.2 nM; in test [3], 1100 ± 140 nM.
